According to patent US10253085B2, “CD31 peptides for the treatment of thrombotic or autoimmune disorders” (INSERM (INSTITUT NATIONAL DE LA SANTE ET DE LA RECHERCHE …, priority 2008, dated 2019):
Entries after “also recorded” stand apart in the source; their conditions may differ.

Tests used:
T-cell activation = experiment: In vitro inhibition of T-cell activation (summary statements); format: cell-based
[1] = tested on: spleen cells from C57Bl/6 (CD31^+/+) mice; experiment: Proliferation in response to TCR stimulation, CD31+/+ spleen cells; format: cell-based, mouse; conditions: peptide 25, 50, 100 μM; scramble peptide 100 μM
Procedure: CD8^+ T cell-mediated cytolytic activity against allogeneic mouse aortic smooth muscle cells and measurement of macrophage gelatinase (MMP-2/9) activity were performed as previously described for human cells in Caligiuri et al. (2006 Arterioscler Thromb Vasc Biol 26:618-623) using kits and reagents from Invitrogen. Briefly, primary cultures of FVB/N mouse aorta smooth muscle cells were labelled with the lipophylic tracer DIO (green) and co-cultured for 3 hours with CD8+ T cell-enriched spleen cells from C57Bl/6 mice (n=3 scramble peptide and n=3 peptide 551-574, 50 μM). Cytolysis was evaluated by intracellular accumulation of propidium iodide (PI). Cells were analysed by flow cytometry and the % of cytolysis was calculated by expressing the number of dead (PI+) cells among the target (DIO+) cells. Intracellular MMP-2/9 (gelatinase) activity was measured by flow cytometry in 7-day bone-marrow derived macrophages from C57Bl/6 mice (n=3 scramble peptide and n=3 peptide 551-574, 50 μM) three hours after the incorporation of OregonGreen® gelatine (MFI). T-cell proliferation was performed using either human peripheral blood mononuclear cells of spleen cells from C57Bl/6 (CD31^+/+) and CD31^−/− mice (Charles River France) as previously described (Caligiuri et al. 2005 Arterioscler Thromb Vasc Biol 25:1659-1664). Briefly, cells were plated in triplicates at 0.2×10^6 cells/well in a U bottom 96-well plate in complete medium (RPMI 1640, 1% pyruvate, 1% glutamine, 1% penicillin-streptomicyne-fungizone, 10% decomplemented fetal calf serum, all from Invitrogen) containing 1 μg/ml anti-mouse CD3/CD28 or 5 μg/ml anti-human CD3 antibodies (BD) as appropriate. CD31 (551-574) and scramble peptide at 25, 50 and 100 μM final concentration were deposited in the wells just before cell plating. Plated cells were cultured for 72 hours in 5% CO2 at 37° C. (^3H) thymidine (0.5 μCi/well) was added for the last 16 hours and proliferation evaluated using a Tomtec harvester and analysis on a Wallac micro beta counter. Data are expressed as mean±SEM of cpm in triplicates.

[2] = tested on: BALB/c mice primed with TNCB; experiment: Delayed type hypersensitivity (DTH) suppression model; format: in vivo, mouse; conditions: single subcutaneous administration; peptide 10, 50, 100 μM; scramble 100 μM
Procedure: Delayed type hypersensitivity (DTH) suppression was evaluated as described in the “Current Protocols in Immunology (2001) 4.0.1-4.0.2 Unit 4.2”. Briefly, TNCB (2-chloro-1,3,5-trinitrobenzene, Fluka #79874) was dissolved in acetone/olive oil (1:1 v/v) at a concentration of 10 mg/ml. BALB/c mice (n=6/group) were primed by painting the shaved regions of the abdomen a with a total 0.2 ml of the preparation (n=6/group). The experiment included 3 groups for peptide 551-574 (10, 50, 100 μM) and 1 group treated with scramble peptide at 100 μM). Five days after priming, 10 μl of the TNCB-solvent mixture was painted on the right pinna, 30 minutes after subcutaneous (interscapolar) administration of the peptide 551-574 or the scramble peptide. Ear thickness increases were calculated by subtracting the thickness of the right and the left pinna of each mouse (right-left/left×100), measured at 24 h with a dial caliper (“Pocotest”, Kroeplin Längenmesstechnick). The measure was performed 5 times on each ear and averaged for further analysis. The immunosuppressive effect of the peptide was calculated as % suppression=(1−ΔTE/ΔTS)×100, where ΔT=(ear thickness 24 hr after elicitation)−(baseline ear thickness), […]. Data are expressed as mean±SEM.

[3] = tested on: C57BL/6J mice immunized with MOG35-55 peptide; experiment: Experimental Autoimmune Encephalomyelitis (EAE) model; format: in vivo, mouse
Procedure: Twelve-week old female C57BL/6J mice were immunized with 300 μg of MOG35-55 peptide emulsified in Complete Freund's Adjuvant 1:1 by volume containing 800 μg of nonviable desiccated Mycobacterium tuberculosis H37RA. A final volume of 200 μl of the emulsion was injected subcutaneously at 4 sites (50 μl/site) over the flanks. In addition, 300 ng of Pertussis toxin was injected intravenously (retro-orbital plexus) on the same day and 2 days later. Clinical signs of EAE ware assessed daily by the following scoring system: 0, no signs; 1, hindlimb weakness; 2, hindlimb weakness and tail paralysis; 3, hindlimb and tail paralysis; 4, hindlimb and tail paralysis and forelimb weakness; 5, moribund state; and 6, death. The peak (waxing phase) occured around day 21. In this C57BL/6J mouse model, there was no waning phase as assessed in our laboratory up to day 41.
The experiment was carried out with ten mice per group. The mice of each group were treating with either of: • PBS; • PepReg (SEQ ID NO: 3); or • PepScra (SEQ ID NO: 14).
The dosing was of 50 μg of peptide per mice and per day (i.e. about 2 mg/Kg per day). The peptide was administered by a subcutaneous injection.

[4] = tested on: CD4+ cells from C57Bl6 mice; experiment: CD4+ T cell activation, early activation marker CD69 by flow cytometry; format: cell-based, mouse; conditions: 18 hours culture
Procedure: Alternatively, the T-cell proliferation assay may comprise comparing expression levels of the early activation marker CD69 in T-cells cultured either in the presence or in the absence of the compound to be tested. This assay may for example be performed as follows: • providing purified CD4+ cells (e.g. purified from C57B16 mice); • stimulating said CD4+ cells by addition of anti-CD3 purified antibodies and bone marrow derived dendritic cells; • culturing the cells for about 18 hours; and • analyzing said cells for the expression of the early activation marker CD69, e.g. by flow cytometry; and • comparing CD69 expression in the presence of the compound to be tested.
The immunosuppressive properties of PepReg (10aa) vs the 23 aa parent peptide were evaluated in vitro. Negatively purified CD4+ cells from C57Bl6 mice were stimulated by soluble anti-CD3 purified antibodies and bone marrow derived dendritic cells. Cells from triplicate wells were analyzed for the expression of the early activation marker CD69 after 18 hours culture in complete RPMI medium supplemented with 10% fetal calf serum.

T cell proliferation = experiment: Suppression of T cell proliferation by [H3] thymidin incorporation, long culture; format: cell-based, mouse; conditions: culture at 37° C. in 10% serum
[5] = associated with disease protection

Substance: LAPWKK (mouse or human-derived CD31 peptide) [SEQ ID NO: 2]
- inhibition of T-cell activation (T-cell activation): capable of inhibiting T-cell activation

Substance: NH2 - SMPAVRSRFSATSLVTLKSRWPK -COOH (H-SMPAVRSRFSATSLVTLKSRWPK-OH) [scramble peptide, scramble peptide used as control for the 23-mer, reference compound]
- proliferation of CD31+/+ spleen cells in response to TCR stimulation [1]: No effect; also recorded: ineffective
- suppression of distal recall of a hapten-elicited specific immune response (ear thickness) [2]: ineffective

Substance: scrambled peptide: scramble peptide of SEQ ID NO: 14 used as control for PepReg; sequence not printed (WPKLRKFVAV; scramble peptide) [reference compound]
- beneficial effect in EAE model ([3]; 50 μg per mice per day subcutaneous): beneficial, although less than PepReg

Substance: VRVFLAPWKK (mouse-derived CD31 peptide) [PepReg, ten COOH terminal amino acids of mouse CD31 peptide]
- dose at which suppression of CD69 expression was observed [4]: 50 µg/mL
- suppression of T cell activation (percentage of CD4 cells expressing CD69) ([4]; anti-CD3 and dendritic cells): at least as efficient as the 23aa peptide
- persistence of suppression of T cell proliferation (T cell proliferation): up to 7 days
- infiltration of IL17+ and IFNg+ T helper CD4+ cells in the central nervous system [3, 5]: reduced infiltration
- proportion of regulatory CD25+/foxP3 CD4+ cells in the central nervous system [3, 5]: increased proportion
- clinical score of EAE activity (paralysis level) ([3]; plateau phase (Days 21 through to 35), 50 μg per mice per day subcutaneous): reducing disease extension
- clinical score of EAE activity (paralysis level) ([3]; waxing phase (Day 15), 50 μg per mice per day subcutaneous): arresting disease development
- inhibition of T-cell activation (T-cell activation): capable of inhibiting T-cell activation
